# Laboratory results taken from ChEMBL document CHEMBL1147379, “Antineoplastic agents, 256. Cell growth inhibitory isocarbostyrils from Hymenocallis” (1993).
# Activity calls are given as the source filed them. The rule behind the calls is not given here.
# Columns and labels:
# [1] = system: P388; assay: Growth inhibition of mouse P388 cells; type: functional; conditions: read-out: ED50 (the source's name)
# [2] = system: M5076; assay: Growth inhibition of mouse M5076 cells; type: functional, cell-based
smiles,measurement,setting,value
O=C1N[C@H]2[C@H](O)[C@H](O)[C@@H](O)[C@H](O)[C@@H]2c2cc3c(c(O)c21)OCO3 [PANCRATISTATIN],EC50,[1],0.01 µg/mL
same,Activity,[2],Active
